Assay results: patent publication US9226897B2, “Self-assembling nanoparticles for the release of bisphosphonates in the treatment of human cancers” (Istituti Fisioterapici Ospitalieri, priority 2010, dated 2016)

Tests used:
KB = experiment: MTT proliferation assay, KB head/neck cancer cells; type: cell-based; details: Homo sapiens, 72 h, read-out: IC50 (50% inhibitory concentration), growth inhibition
Description: (§1) Human melanoma cells (M14) and doxorubicin resistant cells (M14+) were provided by Prof. G. Arancia form the National Institute of Health of Rome. […] Proliferation of human cancer cell lines was performed in the presence of increasing concentrations of different drugs by MTT assay as previously described by Caraglia et al. (Oncogene 2004).
(§2) It was studied the effect of increasing concentrations of ZOL encapsulated in pre- and post-PLCaP NPs on growth inhibition of different human cancer cell lines, by MTT assay. In Table 2, the IC50 (50% inhibitory concentration) values of ZOL, free or encapsulated in pre- or post-PLCaP NPs, in the different cell lines analysed after 72 h, are reported. […] Moreover, when using ZOL-encapsulating NPs, we found a potentiation factor (PF)>1.0 in all tested cell lines, if compared with the free ZOL. […] In particular, on MCF7, pre-PLCaPZ NPs caused an about 12-fold potentiation of ZOL-induced cytotoxicity, while a lower effect (about 8-fold) was found with post-PLCaP NPs.

BX-PC3 = experiment: MTT proliferation assay, BX-PC3 pancreas cancer cells; type: cell-based; details: Homo sapiens, BXPC-3, 72 h, read-out: IC50 (50% inhibitory concentration), growth inhibition
Description: as §1, §2

OPM2 = experiment: MTT proliferation assay, OPM2 multiple myeloma cells; type: cell-based; details: Homo sapiens, OPM-2, 72 h, read-out: IC50 (50% inhibitory concentration), growth inhibition
Description: as §1, §2

MCF7 = experiment: MTT proliferation assay, MCF7 breast cancer cells; type: cell-based; details: Homo sapiens, 72 h, read-out: IC50 (50% inhibitory concentration), growth inhibition
Description: as §1, §2

DU145 = experiment: MTT proliferation assay, DU145 prostate cancer cells; type: cell-based; details: Homo sapiens, DU-145, 72 h, read-out: IC50 (50% inhibitory concentration), growth inhibition
Description: as §1, §2

H1355 = experiment: MTT proliferation assay, H1355 lung cancer cells; type: cell-based; details: Homo sapiens, NCI-H1355, 72 h, read-out: IC50 (50% inhibitory concentration), growth inhibition
Description: as §1, §2

[1] = cited from earlier work
MDA-MB468 = experiment: MTT proliferation assay, MDA-MB468 breast cancer cells; type: cell-based; details: Homo sapiens, MDA-MB-468, 72 h, read-out: IC50 (50% inhibitory concentration), growth inhibition
Description: as §1, §2

PC-3 cells = experiment: In vivo antitumoral activity on prostate cancer, PC-3 xenograft in nude mice; design: species or system CD-1 nude (nu/nu) mice; details: PC-3 tumors in nude mice, 20 μg ZOL i.v. three times a week for three weeks
Description: CD-1 nude (nu/nu) mice, 6-8 weeks old were purchased from Charles River Laboratories (Milano, Italy).
Mice have been acclimated for one week before to be injected with tumor cells. Mice were injected intramuscularly with tumor cells at 3×10^6 cells/mouse in 200 μl of PBS. Six days after, a tumor mass of about 0.3 cm^3 in diameter was evident, mice were randomized in four groups. Six mice/group were treated with ZOL free or NP containing ZOL for 3 consecutive weeks. Tumor mass was calculated three times a week from caliper measurements by using the formula π/6 AB, where A is the major diameter and B is the minor diameter, corresponding to tumor mass (Sommer K. et al. International Journal of Oncology 2001). Toxicity was evaluating by measuring the body weight two times a week. Student's t test was used for statistical comparison of differences.
As control, a group of mice was treated with NP not containing ZOL, to evaluate the potential antitumoral effects. Mice were treated three times a week for three consecutive weeks. Antitumor efficacy of treatments was assessed by the following end-points: a) percent tumor weight inhibition (TWI %), calculated as [1-(mean tumor weight of treated mice/mean tumor weight of controls)]×100; b) tumor growth delay, evaluated as T−C, where T and C are the median times for treated (T) and untreated tumors (C), respectively, to achieve equivalent size.

KMS = experiment: MTT proliferation assay, KMS multiple myeloma cells; type: cell-based; details: Homo sapiens, Multiple myeloma cell, 72 h, read-out: IC50 (50% inhibitory concentration), growth inhibition
Description: as §1, §2

DOX = experiment: MTT proliferation assay, DOX multiple myeloma cells; type: cell-based; details: Homo sapiens, Multiple myeloma cell, 72 h, read-out: IC50 (50% inhibitory concentration), growth inhibition
Description: as §1, §2

PC3 = experiment: MTT proliferation assay, PC3 prostate cancer cells; type: cell-based; details: Homo sapiens, PC-3, 72 h, read-out: IC50 (50% inhibitory concentration), growth inhibition
Description: as §1, §2

CG5 = experiment: MTT proliferation assay, CG5 breast cancer cells; type: cell-based; details: Homo sapiens, 72 h, read-out: IC50 (50% inhibitory concentration), growth inhibition
Description: as §1, §2

MIA PaCa = experiment: MTT proliferation assay, MIA PaCa pancreas cancer cells; type: cell-based; details: Homo sapiens, MIA PaCa-2, 72 h, read-out: IC50 (50% inhibitory concentration), growth inhibition
Description: as §1, §2

RPMI = experiment: MTT proliferation assay, RPMI multiple myeloma cells; type: cell-based; details: Homo sapiens, Multiple myeloma cell, 72 h, read-out: IC50 (50% inhibitory concentration), growth inhibition
Description: as §1, §2

Panc = experiment: MTT proliferation assay, Panc pancreas cancer cells; type: cell-based; details: Homo sapiens, 72 h, read-out: IC50 (50% inhibitory concentration), growth inhibition
Description: as §1, §2

[2] = ZOL 4 mg intravenous over 15 min

O=P(O)(O)C(O)(Cn1ccnc1)P(=O)(O)O [free ZOL, zoledronic acid]
IC50 (KB): 22.8 µM
IC50 (BX-PC3): 12.3 µM
IC50 (OPM2): 83 µM
IC50 (MCF7): 120 µM
IC50 (DU145): 25 µM
IC50 (H1355): 65 µM
distribution plasma half-life (t1/2) [1, 2]: 15 min
elimination plasma half-life (t1/2β) [1, 2]: 105 min
Cmax ([1]; ZOL 4 mg intravenous over 15 min, read-out: maximum plasma concentration (Cmax)): ~1000 nM
initially administered dose retained in the skeleton ([1]; in vivo): approximately 55%
IC50 (MDA-MB468): 28.4 µM
TWI (%), percent tumor weight inhibition (PC-3 cells; at the nadir of the effect): 17%
T-C (days), tumor growth delay (PC-3 cells; median times to equivalent size): 5 days
IC50 (KMS): 30 µM
IC50 (DOX): 41.9 µM
IC50 (PC3): 12.5 µM
IC50 (CG5): 74 µM
IC50 (MIA PaCa): 55 µM
IC50 (RPMI): 120 µM
IC50 (Panc): 32 µM
